The record followed here is ChEMBL document CHEMBL1151424, “In vitro efficacy of new antifolates against trimethoprim-resistant Bacillus anthracis” (Antimicrob Agents Chemother, 2007).

The structures appear in SMILES notation.

In general, MIC refers to the least concentration at which growth counts as inhibited. Higher therefore signals a need for much substance. For orientation: IC50 means the concentration that inhibits the measured activity by half.

One assay relates to Bacillus anthracis. Kind of assay: Antibacterial activity against Bacillus anthracis Ames (NR-411) after 16 hrs by modified alamar blue microdilution broth assay. The assay is classed as functional. The note with it: Ames NR-411, 16 h.
Take `COc1cc(Cc2cnc(N)nc2N)cc(/C=C/C(=O)N2N=Cc3ccccc3C2c2ccccc2)c1OCCN1CCOCC1` (configuration not stated): the minimum inhibitory concentration (MIC) is no more than 25.6 µg/mL.

The next assay concerns the target T1, Dihydrofolate reductase (Homo sapiens, UniProt P00374).
T1 sequence (P00374 whole entry): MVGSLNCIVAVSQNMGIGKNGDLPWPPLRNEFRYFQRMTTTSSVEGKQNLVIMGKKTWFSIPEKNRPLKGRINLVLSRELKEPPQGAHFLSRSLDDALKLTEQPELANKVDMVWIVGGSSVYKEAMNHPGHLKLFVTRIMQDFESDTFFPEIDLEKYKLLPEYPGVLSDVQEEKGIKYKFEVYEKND
The experiment in a line: Inhibition of human recombinant DHFR.
Conditions: not given
`COc1cc(Cc2cnc(N)nc2N)cc(/C=C/C(=O)N2N=Cc3ccccc3C2c2ccc(CO)cc2)c1OC` (configuration not stated): the IC50 is greater than 23000 nM.
Same read-out and setting: for `COc1cc(Cc2cnc(N)nc2N)cc(/C=C/C(=O)N2N=Cc3ccccc3C2c2ccccc2CN(C)C)c1OC` (configuration not stated) the value was greater than 42000 nM; for `COc1cc(Cc2cnc(N)nc2N)cc(/C=C/C(=O)N2N=Cc3ccccc3C2c2ccc(CO)cc2)c1O` (configuration not stated), greater than 24000 nM; for `COc1cc(Cc2cnc(N)nc2N)cc(/C=C/C(=O)N2N=Cc3ccccc3C2c2ccccc2)c1OCCN1CCOCC1` (configuration not stated), greater than 21000 nM.
On the same count and under the same terms, the same measure for `COc1ncc(C2c3ccccc3C=NN2C(=O)/C=C/c2cc(Cc3cnc(N)nc3N)cc(OC)c2OC)c(OC)n1` (configuration not stated): greater than 22000 nM.

The next assay deals with Bacillus anthracis. Kind of assay: Inhibition of histidine-tagged Bacillus anthracis Sterne recombinant DHFR expressed in Escherichia coli BL21 Star (DE3)pLysS up to 3 mins. Particulars: BL21, 0.05 h.
In the case of `COc1cc(Cc2cnc(N)nc2N)cc(/C=C/C(=O)N2N=Cc3ccccc3C2c2ccc(CO)cc2)c1OC` (configuration not stated), the IC50 was 97 nM.
On the same count and under the same terms, for `COc1cc(Cc2cnc(N)nc2N)cc(/C=C/C(=O)N2N=Cc3ccccc3C2c2ccccc2CN(C)C)c1OC` (configuration not stated) the value was 400 nM.
Same read-out and setting: for `COc1cc(Cc2cnc(N)nc2N)cc(/C=C/C(=O)N2N=Cc3ccccc3C2c2ccc(CO)cc2)c1O` (configuration not stated) the value was 69 nM; for `COc1cc(Cc2cnc(N)nc2N)cc(/C=C/C(=O)N2N=Cc3ccccc3C2c2ccccc2)c1OCCN1CCOCC1` (configuration not stated), 170 nM; for `COc1ncc(C2c3ccccc3C=NN2C(=O)/C=C/c2cc(Cc3cnc(N)nc3N)cc(OC)c2OC)c(OC)n1` (configuration not stated), 600 nM.

In the next assay the test system is Bacillus anthracis. The experiment in a line: Antibacterial activity against Bacillus anthracis Sterne after 16 hrs by modified alamar blue microdilution broth assay.
Conditions: not given
The assay is classed as functional. A general note: The colour change of resazurin is a common sign of viable cells or microbes.
As to `COc1cc(Cc2cnc(N)nc2N)cc(/C=C/C(=O)N2N=Cc3ccccc3C2c2ccc(O)cc2)c1OC` (configuration not stated), the MIC was greater than 128 µg/mL.
Still for that read-out and setting: the same measure for `COc1cc(Cc2cnc(N)nc2N)cc(/C=C/C(=O)N2N=Cc3ccccc3C2c2ccc(CO)cc2)c1OC` (configuration not stated): no more than 128 µg/mL; for `COc1cc(Cc2cnc(N)nc2N)cc(/C=C/C(=O)N2N=Cc3ccccc3C2c2ccccc2CN(C)C)c1OC` (configuration not stated): no more than 128 µg/mL; for `COc1cc(Cc2cnc(N)nc2N)cc(/C=C/C(=O)N2N=Cc3ccccc3C2c2ccc(O)cc2)c1C(OC)OC` (configuration not stated): greater than 128 µg/mL.
Same read-out and setting: for `COc1cc(Cc2cnc(N)nc2N)cc(/C=C/C(=O)N2N=Cc3ccccc3C2c2ccccc2CO)c1OC` (configuration not stated) the value was greater than 128 µg/mL.
Take `COc1cc(Cc2cnc(N)nc2N)cc(/C=C/C(=O)N2N=Cc3ccccc3C2c2ccc(O)cc2)c1O` (configuration not stated): the minimum inhibitory concentration (MIC) is greater than 128 µg/mL.
Same read-out and setting: the same measure for `COc1cc(Cc2cnc(N)nc2N)cc(/C=C/C(=O)N2N=Cc3ccccc3C2c2ccc(CO)cc2)c1O` (configuration not stated): no more than 128 µg/mL; for `COc1cc(Cc2cnc(N)nc2N)cc(OC)c1OC` [TRIMETHOPRIM]: greater than 2050 µg/mL.
Take `COc1cc(Cc2cnc(N)nc2N)cc(/C=C/C(=O)N2N=Cc3ccccc3C2c2ccc(CO)cc2)c1C(OC)OC` (configuration not stated): the MIC is greater than 128 µg/mL.
As to `COc1cc(Cc2cnc(N)nc2N)cc(/C=C/C(=O)N2N=Cc3ccccc3C2c2ccccc2)c1OCCN1CCOCC1` (configuration not stated), the MIC is no more than 32 µg/mL.
Still for that read-out and setting: for `COc1ncc(C2c3ccccc3C=NN2C(=O)/C=C/c2cc(Cc3cnc(N)nc3N)cc(OC)c2OC)c(OC)n1` (configuration not stated) the value was no more than 128 µg/mL.
